Legend:
[1] = test system: P2X7-mediated CD23 shedding; test: CD23 shedding assay in RPMI8226 cells; assay type: cell-based, human
Experimental: CD23 shedding from RPMI8226 cells was conducted as described, except using LDM. Briefly, 1 × 10^6 cells in LDM were added to individual tubes and pre-incubated in the absence or presence of compound (or vehicle) (37 °C, 15 min). […] Cells were stained in the absence or presence of anti-CD23 mAb with 7AAD (on ice, 30 min, dark), washed once with D-PBS and data were collected using an LSR Fortessa X-20 flow cytometer. CD23 MFI on live cells was determined using FlowJo, with CD23 expression defined as the difference in MFI between cells stained in the presence or absence of anti-CD23 mAb. ATP-induced shedding was normalised to the maximal ATP-induced response in each experiment.

[2] = target: T1, endogenous hP2X7 (Homo sapiens, UniProt Q99572); test: ATP-induced ethidium+ uptake in RPMI8226 multiple myeloma cells (flow cytometry); assay type: cell-based
T1 construct: endogenous in cells; host or cells: RPMI8226 cells
T1 sequence (Q99572 1-595): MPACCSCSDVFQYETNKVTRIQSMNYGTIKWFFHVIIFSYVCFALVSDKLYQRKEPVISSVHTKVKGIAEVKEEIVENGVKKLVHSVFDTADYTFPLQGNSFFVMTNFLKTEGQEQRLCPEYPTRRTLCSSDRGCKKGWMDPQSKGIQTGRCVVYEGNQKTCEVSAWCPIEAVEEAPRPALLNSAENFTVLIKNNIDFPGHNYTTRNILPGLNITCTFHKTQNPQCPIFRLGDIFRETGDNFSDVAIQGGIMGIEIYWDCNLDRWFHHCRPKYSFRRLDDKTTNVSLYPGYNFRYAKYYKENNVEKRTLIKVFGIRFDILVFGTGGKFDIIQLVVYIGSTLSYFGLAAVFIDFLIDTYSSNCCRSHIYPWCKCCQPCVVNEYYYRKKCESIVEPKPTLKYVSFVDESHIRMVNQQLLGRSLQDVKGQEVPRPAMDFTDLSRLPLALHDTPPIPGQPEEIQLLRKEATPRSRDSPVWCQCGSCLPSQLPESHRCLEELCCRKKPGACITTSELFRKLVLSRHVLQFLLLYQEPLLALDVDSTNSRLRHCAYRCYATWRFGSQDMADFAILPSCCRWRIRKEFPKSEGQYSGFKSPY

[3] = test system: endogenous hP2Y receptors, including hP2Y1, hP2Y2 and hP2Y4; test: Fura-2AM Ca2+ response assay in non-transfected HEK293 cells; assay type: cell-based, human
Experimental: Ca^2+ response assays were conducted as described. Briefly, HEK293, HEK-hP2X7 or HEK-hP2X4 cells were harvested and plated in black, clear-bottom 96-well plates at 5 × 10^4 cells/well overnight (37 °C, 95% air/5% CO2). Cells were washed with extracellular Ca^2+ solution (ECS) (145 mM NaCl, 2 mM CaCl2, 5 mM KCl, 13 mM glucose and 10 mM HEPES, pH 7.4) and incubated with Fura-2AM loading buffer (2.5 μM Fura-2AM and 0.2% pluronic acid in ECS) (37 °C, 95% air/5% CO2, 30 min, dark). Loading buffer was removed; cells were washed once with ECS and incubated in ECS (37 °C, 95% air/5% CO2, 20 min, dark) to allow Fura-2AM de-esterification. Where indicated, cells were pre-incubated with compound or vehicle (DMSO) (37 °C, 30 min, dark). Fura-2 fluorescence at 510 nm was measured every 5 s using a FlexStation 3 (Molecular Devices, San Jose, CA, USA). […] Data was acquired using SoftMax Pro version 7.0 (Molecular Devices). Relative changes in intracellular Ca^2+ were calculated using the ratio of Fura-2AM fluorescence at 510 nm following excitation at 340 nm and 380 nm (F340nm/380nm). […] Ca^2+ responses over time were plotted in Prism software v8.4.2 (GraphPad Software, La Jolla, CA, USA). To determine relative P2X-mediated Ca^2+ responses, the area under the curve from 100 to 180 s was calculated with GraphPad Prism. To determine P2Y-mediated Ca^2+ responses the area under the curve from 30 to 100 s was calculated. In both cases, ATP-induced responses were calculated by subtracting the corresponding basal response. These responses were normalised to the maximal ATP-induced response within their respective experiment.

IC50 ([1]; Homo sapiens, RPMI-8226, read-out: IC50, ATP-induced CD23 shedding) [nM] | blockade of hP2X7-mediated dye uptake ([2]; 30 μM compound, 300 μM ATP, RPMI8226 cells) [%] | IC50 ([2]; read-out: IC50, hP2X7-mediated dye uptake) [nM] | IC50 ([3]; 2.5 μM ATP, AUC 30-100 s, read-out: IC50, endogenous hP2Y-mediated Ca2+ responses) [nM] | SMILES | blockade of ATP-induced CD23 shedding ([1]; 30 μM compound, 200 μM ATP) [%] | inhibition of hP2Y-mediated Ca2+ responses ([3]; 30 μM compound, 2.5 μM ATP) [%] | EC50 ([1]; Homo sapiens, RPMI-8226, read-out: EC50 of ATP, CD23 shedding, RPMI8226 cells) [nM] | ATP concentration giving maximal CD23 shedding ([1]; RPMI8226 cells) [µM] | EC50 ([2]; RPMI8226 cells, no antagonist) [nM] | ATP concentration giving maximum Ca2+ response ([3]; HEK293 cells) [µM] | EC50 ([3]; read-out: EC50 of ATP, Ca2+ response, HEK293 cells, AUC 30-100 s) [nM]
2300 ± 500 | 100 | 580 ± 50 | 330 ± 130 | N=C(N)NC(=O)c1nc(-c2cc3cnccc3o2)c(N2CCCCCC2)nc1N [6-FPHMA, 6-furopyridine-substituted 5-(N,N-hexamethylene) amiloride] | 97 | 97 | – | – | – | – | –
– | – | – | – | Nc1ncnc2c1ncn2[C@@H]1O[C@H](COP(=O)(O)OP(=O)(O)OP(=O)(O)O)[C@@H](O)[C@H]1O [ATP, adenosine 5′-triphosphate] | – | – | 112000 ± 28000 | 200 | 311000 ± 21000 | 300 | 2500 ± 1010
